Test results: patent EP4703362A1 (Chengdu Sibeibo Pharmaceutical Technology Co., Ltd, priority 2023, dated 2024)
Where two headings read alike, the source gives them in different places.

Legend:
[1] = target: T1, CGRP receptor (Homo sapiens, UniProt O60894+Q16602); assay: Competitive binding determination of in-vitro [125I] CGRP; conditions: competition with 125I-CGRP (Human) 200 pM, SK-N-MC cell membrane
T1 construct: A tissue homogenate of SK-N-MC cell membrane was used as a receptor source; host or cells: SK-N-MC (membrane preparation)

[2] = stability test in liver microsomes (rat); format: in vitro ADME
Description: (§1) The stability of the compound of the present invention in liver microsomes of rat, monkey and human was determined. Tested compounds of the present invention were the compounds in Examples 6, 8 and 29, and a control drug was Zavegepant.
(§2) 3.2 An appropriate amount of liver microsome solution was transferred into a 1 mL 96-deep-well plate, added with a tested drug liquid (or a probe substrate solution), and pre-incubated in a thermal mixer at 37°C for 5 minutes. Two parts of mixed solutions were taken out from the system and added with 1×PBS to replace NADPH, and the mixed solutions were taken out at 0 and 60 minutes respectively, and added with methanol (containing an internal standard) to terminate the reaction. In the remaining mixed system, each well was added with NADPH to start the reaction. In the tested substance group, mixed solutions were taken out from the system at 0, 5, 15, 30, 45 and 60 minutes, and in the control group, mixed solutions were taken out from the system at 0, 30 and 60 minutes, and the mixed solutions were added methanol (containing an internal standard) to terminate the reaction. All samples of the terminated reaction were mixed evenly and centrifuged in a centrifuge at 3800 rpm for 15 minutes, and the supernatant was taken for LC-MS/MS analysis.
(§3) A peak area was determined by an extracted ion chromatogram. A slope value k was determined by linear regression of a remaining percentage of a parent drug relative to a natural logarithm of an incubation time curve. According to the slope, in-vitro half-life periods (t1/2) were respectively calculated, and in-vitro intrinsic clearance rates (CLint, represented by µL/min/mg protein) were calculated. Calculation formulas were as follows: t1/2 = ln2/k = 0.693/k; and CLint = 0.693/t1/2 /liver microsome protein concentration [formula]

[3] = stability test in liver microsomes (monkey); format: in vitro ADME
Description: as §1, §2, §3

[4] = stability test in liver microsomes (human); format: in vitro ADME
Description: as §1, §2, §3

[5] = plasma protein binding rate test, equilibrium dialysis (rat); format: in vitro ADME, SD rat; conditions: 1 µM, 6 hours, 37°C
Description: (§4) Protein binding rates of the compound of the present invention in plasma of rat, monkey and human were determined by an equilibrium dialysis method. Tested compounds of the present invention were the compounds in Examples 6, 8 and 29, and a control drug was Zavegepant.
(§5) 3.1 A dry dialysis membrane was rinsed with ultrapure water for 2-3 times, and then soaked in a phosphate buffer for 1 hour for later use. Polytetrafluoroethylene module was soaked in 20% ethanol for 30 minutes, and then surface moisture was dried with dust-free paper for later use. The pretreated dialysis membrane was assembled into a dialysis plate according to the product specification, and one side (receptor compartment) of an osmotic membrane in each dialysis well was added with 100 µL of receptor fluid (100 mM phosphate buffer solution plus 0.002% Tween 80).
(§6) 3.2 The plasma was put into a centrifuge tube, a working solution of a tested substance was added into the plasma, wherein a final concentration was 1 µM, and the mixture was turned upside down and mixed evenly (this step was carried out in ice bath). 20 µL of drug-containing plasma each was taken, and was respectively transferred to a 96-well sample plate according to two parts in parallel, and stored in a refrigerator at -20°C as a T0 sample.
(§7) 3.3 Another 100 µL of the above drug-containing plasma was transferred to the other side (sample compartment) of the membrane in the dialysis device according to two parts in parallel, and incubated under vibration at a constant temperature of 37°C for 6 hours. After 6 hours of incubation, 20 µL of the plasma was respectively taken out from the receptor compartment and the sample compartment after equilibration to obtain samples B and A. The samples B and A were respectively added with corresponding volumes of corresponding blank plasma or phosphate buffer solution (containing 0.002% Tween 80), so that a volume ratio of the plasma to the buffer solution in each sample well was 1: 1.
(§8) 3.4 All sample wells were added with 250 µL of methanol solution containing an internal standard, mixed evenly and then centrifuged in a centrifuge at 3800 rpm for 10 minutes. […]
(§9) A plasma protein binding rate and a recovery rate of the compound in plasma were calculated by the following formulas: dissociation percentage (%) = CB /CA; [formula] plasma protein binding rate (fb%) = 1−dissociation percentage (%); [formula] recovery rate (%) = (CB+CA)/CT0 [formula] wherein CB was a concentration of the compound in the receptor fluid after equilibrium dialysis; CA was a concentration of the compound in the drug-containing plasma after equilibrium dialysis; and CT0 was an initial concentration of the compound in plasma.

[6] = plasma protein binding rate test, equilibrium dialysis (monkey); format: in vitro ADME, cynomolgus monkey; conditions: 1 µM, 6 hours, 37°C
Description: as §4, §5, §6, §7, §8, §9

[7] = plasma protein binding rate test, equilibrium dialysis (human); format: in vitro ADME; conditions: 1 µM, 6 hours, 37°C
Description: as §4, §5, §6, §7, §8, §9

[8] = in-vivo pharmacokinetic study on SD rats, intravenous and intranasal administration; conditions: for AUC: read-out: Area under curve AUC; for half-life: read-out: Half-life period t1/2 (converted); for Vd: read-out: Volume of distribution steady-state Vss; for bioavailability: read-out: Bioavailability F%
Description: Species: SD rats, male, SPF level.
2.1 An appropriate amount of drug was accurately weighed and added with 50 mM succinate buffer (diluted with D5W, pH=5-6), and mixed evenly and dissolved fully in an ultrasonic and vortexed mode to obtain a 0.2 mg/mL drug solution for intravenous (IV) administration.
2.2 An appropriate amount of drug was accurately weighed and added with 50 mM succinate buffer (diluted with pure water, pH=5-6), and mixed evenly and dissolved fully in an ultrasonic and vortexed mode to obtain a 10 mg/mL drug solution for intranasal (IN) administration.
5 minutes, 10 minutes, 15 minutes, 0.5 hour, 1 hour, 2 hours, 4 hours, 8 hours and 24 hours after administration.
Blood was collected through a jugular vein, about 0.2 mL of each sample was collected, EDTA-K2 was used for anticoagulation, the collected blood sample was placed on ice, and plasma was centrifugally separated within 2 hours (at 6000 g and 2-8°C for 5 minutes). The collected plasma samples were stored in a refrigerator at -80°C before analysis, and the remaining plasma samples after analysis were continuously stored in the refrigerator at -80°C for temporary storage.
A concentration of a specified compound in plasma was determined by an LC-MS/MS method, and main pharmacokinetic parameters were calculated by a Winnolin 8.3 non-compartmental model.

[9] = system: capsaicin-induced change of blood flow in forearm skin of cynomolgus monkeys; assay: in-vivo pharmacodynamic study, capsaicin-induced change of blood flow in forearm skin; conditions: 0.05 mg/kg IV, 10 minutes after capsaicin treatment
Description: • 2.1Animal information: Species and strain: cynomolgus monkeys, male (5-8 kg), animal license: SYXK(Su)2019-0004, depilated 3 days before the experiment. • 2.2Preparation of test sample: An appropriate amount of drug was accurately weighed and dissolved in sterile saline solution, and mixed evenly and dissolved fully in an ultrasonic and vortexed mode to obtain a 0.05 mg/ml drug solution for intravenous (IV) administration. • 2.3In a pre-test stage, a blood flow in a forearm of an anesthetized animal was scanned by a blood flow meter, and an O-shaped rubber ring was placed on an inner side of the arm, avoiding obvious blood vessels.

[10] = male, rat, plasma, other: intranasal, IN@2 mg/kg

SMILES	half-life at 1 µM [2] [min]	microsomal CLint at 1 µM [2] [µL/min/mg]	% remaining (60 min) [2] [%]	half-life at 1 µM [3] [min]	microsomal CLint at 1 µM [3] [µL/min/mg]	% remaining (60 min) [3] [%]	half-life at 1 µM ([4]; 1.0 µM) [min]	% remaining (60 min) [4] [%]	fb (%) [5] [%]	fb (%) [6] [%]	fb (%) [7] [%]	blood flow inhibition rate (Mean) [9] [%]	further results
Cc1cc(C[C@@H](NC(=O)N2CCC(c3cc4ccccc4[nH]c3=O)CC2)C(=O)N2CCN(C3CCN(C)CC3)CC2)cc2cn[nH]c12 [Zavegepant, zavegepant, reference compound]	> 120	2.8	95.5	107	13	72.1	66.6	57.5	92.7	78.5	82.0	89.7	Ki [1]: 0.0498 nM; microsomal CLint at 1 µM ([4]; 1.0 µM): 20.8 µL/min/mg; Apparent clearance CL ([8]; IV@1 mg/kg): 4.59 mL/min/kg; AUC ([8]; male, rat, plasma, IV@1 mg/kg): 3620 ng·h/mL; half-life ([8]; male, rat, plasma, IV@1 mg/kg): 155 min; Vd ([8]; male, rat, plasma, IV@1 mg/kg): 0.35 L/kg; AUC [8, 10]: 385 ng·h/mL; bioavailability [8, 10]: 5.31%; Cmax ([8]; male, rat, plasma, other: intranasal, IN@2 mg/kg, read-out: Concentration to peak Cmax): 645 ng/mL; half-life [8, 10]: 64.8 min
Cc1cc(C[C@@H](NC(=O)N2CCC(c3cc4c([nH]c3=O)SCCC4)CC2)C(=O)N2CCN(C3CCN(C)CC3)CC2)cc2cn[nH]c12 [Example 6, (R)-N-(3-(7-methyl-1H-indazole-5-yl)-1-(4-(1-methylpiperidine-4-yl)piperazine-1-yl)-1-oxopropan-2-yl)-4-(7-oxo-3,4,7,8-tetrahydro-2H-thiopyrano[2,3-b]pyridine-6-yl)piperidine-1-for mamide]	> 120	2.4	91.5	> 120	0.8	96.9	> 120	131	90.0	61.3	76.7	355.3	AUC ([8]; rat, plasma, IN@2 mg/kg): 2400 ng·h/mL; bioavailability ([8]; rat, plasma, IN@2 mg/kg): 20.1%; half-life ([8]; rat, plasma, IN@2 mg/kg): 228 min; AUC ([8]; rat, plasma, IV@1 mg/kg): 5990 ng·h/mL; half-life ([8]; rat, plasma, IV@1 mg/kg): 151 min; Vd ([8]; rat, plasma, IV@1 mg/kg): 0.29 L/kg
